Source: US6447997B1, “Gene coding for GADD153 as a clinical diagnostic and prognostic in cancer therapy” (Research Development Foundation, priority 1997, dated 2002)

Test system: GADD153 mRNA
Test: GADD153 mRNA level in 2008 ovarian carcinoma cells after paclitaxel
Format: cell-based
Details: concentration 10 times the IC50, 24 hours

`CC(=O)O[C@H]1C(=O)[C@@]2(C)[C@H]([C@H](OC(=O)c3ccccc3)[C@]3(O)C[C@H](OC(=O)[C@H](O)[C@@H](NC(=O)c4ccccc4)c4ccccc4)C(C)=C1C3(C)C)[C@]1(OC(C)=O)CO[C@@H]1C[C@@H]2O` [paclitaxel] was tested. Which “increase in GADD153 mRNA level” value did it give?
The value was 5.7±2.5 fold.
